Measured values: the supplement of paper PMC11451515

Tests used:
Settings in all cases: 48 h
[1] = test system: SEM cells; assay: cell viability relative to DMSO control; higher = less cytotoxic
How it was run: (§1)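 NOMO1, SEM and P12-Ichikawa leukemia cells spent at least four passages adapting to each medium before use. They were seeded at 500 cells/well (NOMO1, SEM) or 1000 cells/well (P12-Ichikawa) in 5 μl in 1536-well plates and pin-dosed with library compounds in DMSO at 11 threefold steps from 47 μM down to 0.79 nM. After 48 h at 37°C, CellTiter-Glo One luminescence was read. Viability is reported as a percentage of the DMSO wells on each plate, with cell-free wells as background.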

[2] = test system: P12-Ichikawa; assay: AUC of viability dose-response curve (% viability x log10 dose units); higher = less sensitive
How it was run: (§2)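 Viability of medium-adapted leukemia cells was measured by CellTiter-Glo One luminescence after 48 h at 37°C with library compounds in DMSO. Doses were 11 threefold steps from 47 μM to 0.79 nM, in 1536-well plates at 500 or 1000 cells/well. Signals were normalised per plate to DMSO and cell-free wells and fitted with a four-parameter log-logistic model on log10 dose. Area under the curve was integrated by trapezoidal rule, with curves exceeding full viability scaled and failed quality-control curves removed.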

[3] = test system: NOMO1; assay: as above
How it was run: as §2

[4] = test system: SEM cells; assay: as above
How it was run: as §2

[5] = test system: P12-Ichikawa; assay: cell viability relative to DMSO control; higher = less cytotoxic
How it was run: as §1

[6] = test system: NOMO1; assay: as above
How it was run: as §1

CC(=O)OC\C1=C(\[N@]2[C@@H](SC1)[C@H](N)C2=O)C(O)=O
[1], HPLM + 10% dialyzed FBS
Settings	cell viability [%]
0.000781 µM	104
0.00234 µM	111
0.00702 µM	119
0.0211 µM	120
0.0632 µM	123
0.19 µM	141
0.569 µM	129
1.71 µM	138
5.12 µM	125
15.4 µM	126
46.1 µM	97.1

AUC of viability dose-response curve
Settings	[2]	[3]	[4]
HPLM + 10% dialyzed FBS	346	330	462
RPMI 5 mM glucose + 10% FBS	348	306	473
RPMI 5 mM glucose + 10% dialyzed FBS	370	324	470

CC[C@@]1([C@@H]2O[C@@H]([C@H]3O[C@@](O)(CO)[C@H](C)C[C@@H]3C)C[C@@H]2C)CC[C@H]([C@]2(C)CC[C@]3(C[C@H](O)[C@@H](C)[C@@H]([C@@H](C)[C@@H](OC)[C@H](C)C(=O)[O-])O3)O2)O1
AUC of viability dose-response curve
Settings	[2]	[3]	[4]
HPLM + 10% dialyzed FBS	375	381	336
RPMI 5 mM glucose + 10% FBS	350	409	324
RPMI 5 mM glucose + 10% dialyzed FBS	340	393	343

COc1cc(N[S+](=O)([O-])c2ccc(N)cc2)nc(OC)n1
cell viability [%]
Settings	[1]	[5]	[6]
HPLM + 10% dialyzed FBS, 0.000781 µM	71.9	114	102
HPLM + 10% dialyzed FBS, 0.00234 µM	78.4	111	106
HPLM + 10% dialyzed FBS, 0.00702 µM	85.6	116	111
HPLM + 10% dialyzed FBS, 0.0211 µM	83	112	116
HPLM + 10% dialyzed FBS, 0.0632 µM	86.4	125	109
HPLM + 10% dialyzed FBS, 0.19 µM	85.5	115	92.5
HPLM + 10% dialyzed FBS, 0.569 µM	81.7	112	114
HPLM + 10% dialyzed FBS, 1.71 µM	82.6	109	112
HPLM + 10% dialyzed FBS, 5.12 µM	76.5	110	99.3
HPLM + 10% dialyzed FBS, 15.4 µM	74.6	110	132
HPLM + 10% dialyzed FBS, 46.1 µM	66.4	107	109
RPMI 5 mM glucose + 10% FBS, 0.000781 µM	76.1	102	107
RPMI 5 mM glucose + 10% FBS, 0.00234 µM	102	106	106
RPMI 5 mM glucose + 10% FBS, 0.00702 µM	90.6	109	116
RPMI 5 mM glucose + 10% FBS, 0.0211 µM	83.4	110	111
RPMI 5 mM glucose + 10% FBS, 0.0632 µM	102	107	124
RPMI 5 mM glucose + 10% FBS, 0.19 µM	108	110	111
RPMI 5 mM glucose + 10% FBS, 0.569 µM	108	110	112
RPMI 5 mM glucose + 10% FBS, 1.71 µM	96.9	110	103
RPMI 5 mM glucose + 10% FBS, 5.12 µM	84.5	105	96.3
RPMI 5 mM glucose + 10% FBS, 15.4 µM	111	95.8	111
RPMI 5 mM glucose + 10% FBS, 46.1 µM	106	103	120
RPMI 5 mM glucose + 10% dialyzed FBS, 0.000781 µM	92.8	112	105
RPMI 5 mM glucose + 10% dialyzed FBS, 0.00234 µM	91.3	108	91.9
RPMI 5 mM glucose + 10% dialyzed FBS, 0.00702 µM	99.7	114	104
RPMI 5 mM glucose + 10% dialyzed FBS, 0.0211 µM	98.8	106	103
RPMI 5 mM glucose + 10% dialyzed FBS, 0.0632 µM	118	117	102
RPMI 5 mM glucose + 10% dialyzed FBS, 0.19 µM	101	113	115
RPMI 5 mM glucose + 10% dialyzed FBS, 0.569 µM	92.7	117	110
RPMI 5 mM glucose + 10% dialyzed FBS, 1.71 µM	95.3	117	99.9
RPMI 5 mM glucose + 10% dialyzed FBS, 5.12 µM	98.9	104	94
RPMI 5 mM glucose + 10% dialyzed FBS, 15.4 µM	101	103	116
RPMI 5 mM glucose + 10% dialyzed FBS, 46.1 µM	101	101	111

AUC of viability dose-response curve
Settings	HPLM + 10% dialyzed FBS	RPMI 5 mM glucose + 10% FBS	RPMI 5 mM glucose + 10% dialyzed FBS
[2]	462	470	466
[3]	431	476	458

CC(=O)NC[C@H]1CN(c2ccc(N3CCOCC3)c(F)c2)C(=O)O1
AUC of viability dose-response curve
Settings	[2]	[3]	[4]
HPLM + 10% dialyzed FBS	465	415	475
RPMI 5 mM glucose + 10% FBS	449	473	476
RPMI 5 mM glucose + 10% dialyzed FBS	429	450	475

Clc1ccccc1CN1CCc2sccc2C1
Settings	cell viability [%]
[1], RPMI 5 mM glucose + 10% FBS, 0.000781 µM	94.3
[1], RPMI 5 mM glucose + 10% FBS, 0.00234 µM	148
[1], RPMI 5 mM glucose + 10% FBS, 0.00702 µM	120
[1], RPMI 5 mM glucose + 10% FBS, 0.0211 µM	139
[1], RPMI 5 mM glucose + 10% FBS, 0.0632 µM	133
[1], RPMI 5 mM glucose + 10% FBS, 0.19 µM	152
[1], RPMI 5 mM glucose + 10% FBS, 0.569 µM	135
[1], RPMI 5 mM glucose + 10% FBS, 1.71 µM	141
[1], RPMI 5 mM glucose + 10% FBS, 5.12 µM	144
[1], RPMI 5 mM glucose + 10% FBS, 15.4 µM	140
[1], RPMI 5 mM glucose + 10% FBS, 46.1 µM	33.3
[5], HPLM + 10% dialyzed FBS, 0.000781 µM	120
[5], HPLM + 10% dialyzed FBS, 0.00234 µM	121
[5], HPLM + 10% dialyzed FBS, 0.00702 µM	117
[5], HPLM + 10% dialyzed FBS, 0.0211 µM	130
[5], HPLM + 10% dialyzed FBS, 0.0632 µM	129
[5], HPLM + 10% dialyzed FBS, 0.19 µM	132
[5], HPLM + 10% dialyzed FBS, 0.569 µM	129
[5], HPLM + 10% dialyzed FBS, 1.71 µM	59.8
[5], HPLM + 10% dialyzed FBS, 5.12 µM	15.5
[5], HPLM + 10% dialyzed FBS, 15.4 µM	14.4
[5], HPLM + 10% dialyzed FBS, 46.1 µM	16.7

AUC of viability dose-response curve
Settings	[2]	[3]	[4]
HPLM + 10% dialyzed FBS	348	323	453
RPMI 5 mM glucose + 10% FBS	340	315	459
RPMI 5 mM glucose + 10% dialyzed FBS	373	322	460

CO[C@@H]1C(N(C)C(=O)c2ccccc2)C[C@H]2O[C@]1(C)n1c3ccccc3c3c4c(c5c6ccccc6n2c5c31)C(=O)NC4=O (some centres undefined)
cell viability [%]
Settings	[1]	[5]	[6]
HPLM + 10% dialyzed FBS, 0.000781 µM	70.6	84.9	82.2
HPLM + 10% dialyzed FBS, 0.00234 µM	69.4	88.1	105
HPLM + 10% dialyzed FBS, 0.00702 µM	95.4	93.3	90.2
HPLM + 10% dialyzed FBS, 0.0211 µM	89.2	92.3	106
HPLM + 10% dialyzed FBS, 0.0632 µM	75.8	91	98.1
HPLM + 10% dialyzed FBS, 0.19 µM	92.6	97.7	104
HPLM + 10% dialyzed FBS, 0.569 µM	90	99	98.3
HPLM + 10% dialyzed FBS, 1.71 µM	80.5	91.2	101
HPLM + 10% dialyzed FBS, 5.12 µM	40.3	90	58.4
HPLM + 10% dialyzed FBS, 15.4 µM	14.7	46	40.4
HPLM + 10% dialyzed FBS, 46.1 µM	7.83	25.9	10.2
RPMI 5 mM glucose + 10% FBS, 0.000781 µM	68.2	78.8	76.8
RPMI 5 mM glucose + 10% FBS, 0.00234 µM	66.2	87.8	90.2
RPMI 5 mM glucose + 10% FBS, 0.00702 µM	92.1	88.7	83.1
RPMI 5 mM glucose + 10% FBS, 0.0211 µM	91.2	90.9	91
RPMI 5 mM glucose + 10% FBS, 0.0632 µM	86.5	97.4	88.4
RPMI 5 mM glucose + 10% FBS, 0.19 µM	86.1	87	104
RPMI 5 mM glucose + 10% FBS, 0.569 µM	75.1	84.8	87
RPMI 5 mM glucose + 10% FBS, 1.71 µM	47.7	90.2	89.3
RPMI 5 mM glucose + 10% FBS, 5.12 µM	19.4	73.4	53.5
RPMI 5 mM glucose + 10% FBS, 15.4 µM	10.7	27.1	47.7
RPMI 5 mM glucose + 10% FBS, 46.1 µM	7.46	32.5	8.01
RPMI 5 mM glucose + 10% dialyzed FBS, 0.000781 µM	81.5	78.9	71.5
RPMI 5 mM glucose + 10% dialyzed FBS, 0.00234 µM	84.1	84.4	78.8
RPMI 5 mM glucose + 10% dialyzed FBS, 0.00702 µM	91.7	91	78
RPMI 5 mM glucose + 10% dialyzed FBS, 0.0211 µM	79.6	91.9	91.7
RPMI 5 mM glucose + 10% dialyzed FBS, 0.0632 µM	82.7	82.9	85.1
RPMI 5 mM glucose + 10% dialyzed FBS, 0.19 µM	102	90.1	85.4
RPMI 5 mM glucose + 10% dialyzed FBS, 0.569 µM	79.7	83	75.3
RPMI 5 mM glucose + 10% dialyzed FBS, 1.71 µM	74.4	84.8	90.6
RPMI 5 mM glucose + 10% dialyzed FBS, 5.12 µM	35.7	87.8	42.7
RPMI 5 mM glucose + 10% dialyzed FBS, 15.4 µM	13.2	23.2	49.1
RPMI 5 mM glucose + 10% dialyzed FBS, 46.1 µM	8.6	32.7	8.58

AUC of viability dose-response curve
Settings	HPLM + 10% dialyzed FBS	RPMI 5 mM glucose + 10% FBS	RPMI 5 mM glucose + 10% dialyzed FBS
[2]	401	372	369
[4]	324	289	327
